Assay [1] deals with NAMPT (human, recombinant, C-terminally His-tagged) (Homo sapiens, UniProt P43490). As to the kind of experiment: Time-Resolved Fluorescence Resonance Energy Transfer (TR-FRET) Binding Assay of NAMPT. Particulars: without substrates; 6.8 nM NAMPT, 200 nM probe, 3 hours equilibration. The essentials: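 Read-out is the time-resolved FRET ratio Em520/Em495 (excitation 337 nm) between a terbium anti-His antibody (1 nM) on the enzyme and an Oregon Green 488-labelled nicotinamide-competitive inhibitor probe (200 nM). Enzyme was 6.8 nM, DMSO 2%, pH 7.5 HEPES buffer; 3 h room-temperature equilibration preceded reading.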
Sequence of NAMPT (human, recombinant, C-terminally His-tagged) (P43490 whole entry): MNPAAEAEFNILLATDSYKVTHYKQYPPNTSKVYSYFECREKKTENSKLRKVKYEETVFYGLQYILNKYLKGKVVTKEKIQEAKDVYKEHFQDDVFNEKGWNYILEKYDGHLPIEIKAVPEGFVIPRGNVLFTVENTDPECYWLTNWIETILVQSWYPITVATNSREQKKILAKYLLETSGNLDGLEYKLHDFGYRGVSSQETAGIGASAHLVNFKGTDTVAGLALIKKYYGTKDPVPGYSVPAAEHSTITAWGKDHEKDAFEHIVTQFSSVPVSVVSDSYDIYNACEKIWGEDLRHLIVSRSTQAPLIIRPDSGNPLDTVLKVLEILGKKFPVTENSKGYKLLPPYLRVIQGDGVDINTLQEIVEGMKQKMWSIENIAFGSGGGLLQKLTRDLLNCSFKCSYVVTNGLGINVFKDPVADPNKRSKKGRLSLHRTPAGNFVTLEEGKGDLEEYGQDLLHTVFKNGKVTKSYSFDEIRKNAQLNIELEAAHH

For assay [2], the target named is NAMPT (Homo sapiens, UniProt P43490). The experiment in a line: TR-FRET Binding Assay of NAMPT with PRPP. As to conditions: with 200 μM PRPP and 2.5 mM ATP; 2 nM NAMPT, 2 nM probe, 16 hours equilibration. The method in brief:
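NAMPT 2 nM + probe 2 nM + Tb-anti-His Ab 1 nM; PRPP 200 μM, ATP 2.5 mM, DMSO 2%; 16 h equilibration before TR-FRET read.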

Assay [3] relates to PC3 cells. As to the kind of experiment: NAMPT Cell Proliferation Assay. Format: cell-based. As to conditions: Homo sapiens, PC-3, 120 h, 5 days incubation, cell viability by Cell Titer Glo. The essentials:
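IC50 values derive from sigmoidal dose-response fits of percent inhibition of PC3 viability, measured by luminescence after 5 days of compound treatment. Cells (500/well, RPMI containing 10% heat-inactivated FBS) are allowed to attach overnight, and compounds are tested at 10-fold dilutions between 10 μM and 1×10^−5 μM.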

Sequence of NAMPT (P43490 whole entry): as above

Consider `CC[C@H](C)C(=O)N1CC[C@H](Oc2ccc(NC(=O)NCc3ccn4ccnc4c3)cc2)C1` [Example 328, 1-(imidazo[1,2-a]pyridin-7-ylmethyl)-3-[4-({(3S)-1-[(2S)-2-methylbutanoyl]pyrrolidin-3-yl]oxy)phenyl}urea], for which the IC50 was determined as 68 nM in assay [1], 0.169 nM in assay [2] and 8.9 nM in assay [3].
Take `O=C(NCc1ccn2ccnc2c1)c1ccc(-c2cnn(CC3CCC3)c2)s1` [Example 475, 5-[1-(cyclobutylmethyl)-1H-pyrazol-4-yl]-N-(imidazo[1,2-a]pyridin-7-ylmethyl)thiophene-2-carboxamide]: the IC50 in assay [1] was 9.76 nM; in assay [2], 0.169 nM; in assay [3], 6.92 nM.
The matching figures for `COCCOCC(=O)N1CC=C(c2ccc(C(=O)NCc3ccc4nccn4c3)cc2)CC1` [Example 103, N-(imidazo[1,2-a]pyridin-6-ylmethyl)-4-{1-[(2-methoxyethoxy)acetyl]-1,2,3,6-tetrahydropyridin-4-yl}benzamide]: 840 nM, 1.44 nM and 62.1 nM.
For the compound `O=C(Nc1ccc(C(=O)NCCCN2CCCCC2)cc1)Nc1ccc2nccn2c1` [Example 9, 4-[(imidazo[1,2-a]pyridin-6-ylcarbamoyl)amino]-N-[3-(piperidin-1-yl)propyl]benzamide], the figures for the IC50 in assay [1], in assay [2] and in assay [3] were 1720 nM, 0.459 nM and 649 nM, respectively.
The matching figures for `COCCNC(=O)N(CC1CCOCC1)c1ncc(C(=O)NCc2ccc3nccn3c2)s1` [Example 151, N-(imidazo[1,2-a]pyridin-6-ylmethyl)-2-{[(2-methoxyethyl)carbamoyl](tetrahydro-2H-pyran-4-ylmethyl)amino}-1,3-thiazole-5-carboxamide]: 7150 nM, 5.54 nM and 76.1 nM.
Take `O=C(NCc1ccn2ccnc2c1)c1cnc(C2CCN(C(=O)c3ccccc3F)CC2)s1` [Example 802, 2-[1-(2-fluorobenzoyl)piperidin-4-yl]-N-(imidazo[1,2-a]pyridin-7-ylmethyl)-1,3-thiazole-5-carboxamide]: the results for the IC50 in assay [1], in assay [2] and in assay [3] were 35.9 nM, 0.533 nM and 5.83 nM, respectively.
The matching figures for `CC(C)CC(=O)N1CCC(c2ncc(C(=O)NCc3ccn4ccnc4c3)s2)C1` (stereo not drawn) [Example 806, N-(imidazo[1,2-a]pyridin-7-ylmethyl)-2-[1-(3-methylbutanoyl)pyrrolidin-3-yl]-1,3-thiazole-5-carboxamide]: 2740 nM, 0.543 nM and 1400 nM.
The matching figures for `CC(C)C(=O)N1CCC(c2ccc(C(=O)NCc3ccn4ccnc4c3)s2)CC1` [Example 259, N-(imidazo[1,2-a]pyridin-7-ylmethyl)-5-[1-(2-methylpropanoyl)piperidin-4-yl]thiophene-2-carboxamide]: 26.6 nM, 0.169 nM and 2.54 nM.
The matching figures for `CC(C)Cn1cc(-c2ccc(C(=O)NCc3cn4ccnc4cn3)s2)cn1` [Example 754, N-(imidazo[1,2-a]pyrazin-6-ylmethyl)-5-[1-(2-methylpropyl)-1H-pyrazol-4-yl]thiophene-2-carboxamide]: 4.92 nM, 0.51 nM and 1.25 nM.
With `O=C(NCc1ccn2ccnc2c1)c1ccc(OC2CCN(C(=O)CC3CCOCC3)CC2)cc1` [Example 422, N-(imidazo[1,2-a]pyridin-7-ylmethyl)-4-{[1-(tetrahydro-2H-pyran-4-ylacetyl)piperidin-4-yl]oxy}benzamide], the IC50 was found to be 1720 nM in assay [1], 0.212 nM in assay [2] and 109 nM in assay [3].
The matching figures for `CC[C@H](C)C(=O)N1CCC(Oc2ccc(NC(=O)NCc3ccn4ccnc4c3)cc2)CC1` [Example 443, 1-(imidazo[1,2-a]pyridin-7-ylmethyl)-3-[4-({1-[(2S)-2-methylbutanoyl]piperidin-4-yl}oxy)phenyl]urea]: 138 nM, 0.274 nM and 8.96 nM.
For `CC(C)Cc1ccc(-c2ccc(C(=O)NCc3ccn4ccnc4c3)o2)cc1` [Example 747, N-(imidazo[1,2-a]pyridin-7-ylmethyl)-5-[4-(2-methylpropyl)phenyl]furan-2-carboxamide], the IC50 in assay [1] was 435 nM; in assay [2] it was 1.75 nM; in assay [3], 942 nM.
The matching figures for `O=C(NCc1ccn2ccnc2c1)Nc1ccc(OC2CCN(C(=O)[C@@H]3CCCO3)CC2)cc1` [Example 449, 1-(imidazo[1,2-a]pyridin-7-ylmethyl)-3-[4-({1-[(2S)-tetrahydrofuran-2-ylcarbonyl]piperidin-4-yl}oxy)phenyl]urea]: 256 nM, 0.169 nM and 23.6 nM.
Regarding `O=C(NCc1ccn2ccnc2c1)c1ccc(C2CCN(C(=O)CC3CC3)C2)cc1` (stereo not drawn) [Example 369, 4-[1-(cyclopropylacetyl)pyrrolidin-3-yl]-N-(imidazo[1,2-a]pyridin-7-ylmethyl)benzamide], the half-inhibitory concentration (IC50) in assay [1] came out at 429 nM; in assay [2], 0.337 nM; in assay [3], 738 nM.
For `O=C(CCc1ccccc1)Nc1ccc(NC(=O)NCc2ccn3ccnc3c2)cc1` [Example 285, N-(4-{[(imidazo[1,2-a]pyridin-7-ylmethyl)carbamoyl]amino}phenyl)-3-phenylpropanamide] the same measures were 82.6 nM, 0.593 nM and 301 nM.
For `O=C(NCc1ccc2nccn2c1)c1ccc(C2=CCN(C(=O)CCC3CCCO3)CC2)cc1` (stereo not drawn) [Example 96, N-(imidazo[1,2-a]pyridin-6-ylmethyl)-4-{1-[3-(tetrahydrofuran-2-yl)propanoyl]-1,2,3,6-tetrahydropyridin-4-yl}benzamide] the same measures were 192 nM, 1.56 nM and 9.65 nM.
The matching figures for `O=C(NCc1ccn2ccnc2c1)Nc1ccc(C2CCN(C(=O)C3COCCO3)C2)cc1` (stereo not drawn) [Example 390]: 133 nM, 0.445 nM and 80.3 nM.
On to `O=C(CC1CCOC1)NC1(c2ccc(C(=O)NCc3ccn4ccnc4c3)s2)COC1` (stereo not drawn) [Example 326, N-(imidazo[1,2-a]pyridin-7-ylmethyl)-5-{3-[(tetrahydrofuran-3-ylacetyl)amino]oxetan-3-yl}thiophene-2-carboxamide], for which the results for the IC50 in assay [1], in assay [2] and in assay [3] were 2350 nM, 1.3 nM and 457 nM, respectively.
For `CC[C@H](C)C(=O)N1CCC(c2ccc(NC(=O)NCc3ccn4ccnc4c3)cc2)C1` (stereo partly drawn) [Example 381] the same measures were 84.1 nM, 0.259 nM and 17.3 nM.
Consider `CC(C)CCC(=O)Nc1ccc(NC(=O)NCc2ccc3nccn3c2)cc1` [Example 274, N-(4-{[(imidazo[1,2-a]pyridin-6-ylmethyl)carbamoyl]amino}phenyl)-4-methylpentanamide], for which the figures for the IC50 in assay [1], in assay [2] and in assay [3] were 17.8 nM, 0.196 nM and 10.4 nM, respectively.
For `O=C(NCc1ccn2ccnc2c1)c1ccc(C2CN(S(=O)(=O)C3CC3)C2)cc1` [Example 568, 4-[1-(cyclopropylsulfonyl)azetidin-3-yl]-N-(imidazo[1,2-a]pyridin-7-ylmethyl)benzamide] the same measures were 375 nM, 0.723 nM and 180 nM.
In the case of `CC(C)Cn1cc(-c2ccc(C(=O)NCc3ccc4nccn4c3)s2)cn1` [Example 75, N-(imidazo[1,2-a]pyridin-6-ylmethyl)-5-[1-(2-methylpropyl)-1H-pyrazol-4-yl]thiophene-2-carboxamide], the IC50 in assay [1] is 12.2 nM; in assay [2], 0.445 nM; in assay [3] it was 1.49 nM.
The matching figures for `O=C(CN1CCOCC1)Nc1ccc(C(=O)NCc2ccc3nccn3c2)cc1` [Example 80, N-(imidazo[1,2-a]pyridin-6-ylmethyl)-4-[(morpholin-4-ylacetyl)amino]benzamide]: 228 nM, 5.71 nM and 19.4 nM.
Regarding `O=C(NCc1ccc2nccn2c1)c1ccc(C2=CCN(C(=O)CC3CCCC3)CC2)cc1` [Example 97, 4-[1-(cyclopentylacetyl)-1,2,3,6-tetrahydropyridin-4-yl]-N-(imidazo[1,2-a]pyridin-6-ylmethyl)benzamide], the results for the IC50 in assay [1], in assay [2] and in assay [3] were 109 nM, 0.333 nM and 4.55 nM, respectively.
The matching figures for `O=C(CC1CCOC1)Nc1ccc(C(=O)NCc2ccc3nccn3c2)cc1` (stereo not drawn) [Example 78, N-(imidazo[1,2-a]pyridin-6-ylmethyl)-4-[(tetrahydrofuran-3-ylacetyl)amino]benzamide]: 56.5 nM, 2.4 nM and 40.7 nM.
The matching figures for `CS(=O)(=O)CCn1cc(-c2ccc(C(=O)NCc3ccn4ccnc4c3)s2)cn1` [Example 300, N-(imidazo[1,2-a]pyridin-7-ylmethyl)-5-{1-[2-(methylsulfonyl)ethyl]-1H-pyrazol-4-yl}thiophene-2-carboxamide]: 61.4 nM, 0.169 nM and 28.7 nM.

Values taken from patent US9187472B2 (AbbVie Inc., priority 2012, dated 2015).
